Results: US7247295B2, “Use of 1,2-decandiol for combating germs causing body odor” (DRAGOCO Gerberding & Co. AG, priority 2001, dated 2007)
Values after ≈ are worked out from the molar mass of the structure shown.

How the values were obtained:
Type in all cases: cell-based
[1] = tested on: Brevibacterium epidermidis ATCC 35514; test: MIC determination, agar dilution method (DIN 58 940/58 944); conditions: ATCC35514, Mueller-Hinton agar, aerobic, 18 h at 36° C., pure substance
Procedure: (§1) To prepare various test concentrations 2.6 ml of a 3.3% stock solution (3.3 g 1,2-decanediol or comparison substance in 100 ml ethanol (96% in H2O; Merck, Cat. no. 1.00971)) was used at the starting material in each case. Further test concentrations (diluted sample) in the form of a geometric dilution series were prepared by progressive 2:1 dilution with ethanol (96%; Merck, Cat. no. 1.00971). Determination of the antimicrobial action of 1,2-decanediol (or of a comparison substance) was carried out with the aid of the agar dilution method based on DIN 58 940/ICS and DIN 58 944/ICS. Petri dishes 5.5 cm in diameter were filled with 8.7 ml freshly prepared Mueller-Hinton agar (Merck, Cat. no. 1.05437 or Wilkins-Chalgren agar boillon (sic), Oxoid, Cat. no. CM 643, supplemented with 10 g agar-agar/litre) kept liquid at 50° C., to which in each case 0.3 ml of the particular sample, that is to say 3.3% (V/V) based on the total volume of agar and sample, was added. By means of this further dilution of the undiluted stock solution and of the already diluted samples with the test agar (0.3 ml of the stock solution or of the corresponding diluted sample+8.7 ml agar) 30-fold lower end concentrations were prepared in each case (when using the stock solution an initial concentration of 1,100 ppm results). The concentrations given below are based on the pure substance and have been converted to ppm. 2 agar plates were cast per test concentration and nutrient medium. After solidification and drying (about 1 h at 37° C.), the test plates were inoculated in point form with, in each case, 1 μl of the test organism suspensions listed below. To check purity and identity, the aerobically growing bacteria Brevibacterium epidermidis, Corynebacterium xerosis; and Staphylococcus epidermidis were cultured on Columbia blood agar (BioMérieux, Cat. no. 43049). Further details on the test organisms can be taken from Table 2. [table] The preparation of the test organism suspensions of the test organisms for Brevibacterium epidermidis, Corynebacterium xerosis, and Staphylococcus epidermidis was carried out by incubation of Mueller-Hinton bouillon (Merck, Cat. no. 1.10293), which had been inoculated with a few individual colonies of the particular test organisms, at 36° C. After a distinct turbidity had been achieved, sterile nutrient bouillon was added to the suspensions in such an amount that the turbidity thereof corresponded to McFarland Standard 0.5 (approx. 10^8 CFU/ml). The inoculated plates were incubated under the conditions given in Table 3 and were then assessed. The MIC (minimum inhibitory concentration) was considered to be the lowest active compound concentration with which there is macroscopically no growth. Minimum, barely visible growth or a few small individual colonies were assessed as inhibition. [table] Suspensions of the microorganisms described above were incubated in accordance with the general test conditions described under 1. and the MIC values of 1,2-decanediol were determined (see Table 4). For reference purposes the MIC values for 1,2-octanediol were also determined.

[2] = tested on: Corynebacterium xerosis ATCC 7711; test: as above; conditions: ATCC7711, Mueller-Hinton agar, aerobic, 18 h at 36° C., pure substance
Procedure: as §1

[3] = tested on: Staphylococcus epidermidis ATCC 12228; test: as above; conditions: ATCC12228, Mueller-Hinton agar, aerobic, 18 h at 36° C., pure substance
Procedure: as §1

[4] = tested on: Corynebacterium xerosis (C. xerosis 7711); test: Growth curve, suspension test; conditions: concentration 0.3% in AC medium; incubated 20, 60 and 180 min; compared with 1,2-octanediol and farnesol
Procedure: • AC medium: 37 g brain heart infusion, 5 g glucose, 1 ml Tween 80, made up to 1 l with H2O. Test Substances: • 1,2-Octanediol (0.3%) • 1,2-Decanediol (0.3%) • Farnesol (0.3%) Control: • AC medium without active compound Test Solutions: • Relevant test substance in AC medium Suspension Test (see FIG. 1) 60 ml AC medium were inoculated with 0.4 ml of a fresh overnight culture of the test organism Corynebacterium xerosis (C. xerosis 7711). The culture vessel was shaken at 30° C. and 250 rpm until a cell density of 10^5 to 10^6 cells/ml had been reached. The test substances were weighed out and in each case dissolved in 2.5 ml AC medium with brief heating to 60° C. The test solutions obtained in this way were then added to 2.5 ml bacterial suspension in each case and the mixtures were incubated for 20, 60 and 180 min maintaining the growth conditions. 100 μl of the incubated test solutions were then taken and the bacterial titre determined by plating-out on nutrient medium.

[5] = tested on: Staphylococcus epidermidis, Corynebacterium xerosis, Brevibacterium epidermidis; test: MIC determination, agar dilution method, summary over the three test organisms; conditions: summary of Table 4 over all three test organisms
Procedure: To prepare various test concentrations 2.6 ml of a 3.3% stock solution (3.3 g 1,2-decanediol or comparison substance in 100 ml ethanol (96% in H2O; Merck, Cat. no. 1.00971)) was used at the starting material in each case. Further test concentrations (diluted sample) in the form of a geometric dilution series were prepared by progressive 2:1 dilution with ethanol (96%; Merck, Cat. no. 1.00971). Determination of the antimicrobial action of 1,2-decanediol (or of a comparison substance) was carried out with the aid of the agar dilution method based on DIN 58 940/ICS and DIN 58 944/ICS. […] The inoculated plates were incubated under the conditions given in Table 3 and were then assessed. […] Minimum, barely visible growth or a few small individual colonies were assessed as inhibition. Suspensions of the microorganisms described above were incubated in accordance with the general test conditions described under 1. and the MIC values of 1,2-decanediol were determined (see Table 4). For reference purposes the MIC values for 1,2-octanediol were also determined.

Compound | MIC [1] | MIC [2] | MIC [3] | effectiveness in growth curve (bacterial titre) [4] | MIC values (over the three test organisms) [5] | MIC [5]
CCCCCCCCC(O)CO (stereo not drawn) [1,2-Decanediol, 1,2-decanediol] | 450 µg/mL (≈ 2.58 mM) | 225 µg/mL (≈ 1.29 mM) | 225 µg/mL (≈ 1.29 mM) | by far the greatest effectiveness of the substances tested | distinctly lower | –
CCCCCCC(O)CO (stereo not drawn) [1,2-Octanediol, 1,2-octanediol, reference compound] | 3600 µg/mL (≈ 24.6 mM) | 3600 µg/mL (≈ 24.6 mM) | 1800 µg/mL (≈ 12.3 mM) | – | – | 1800 to 3600 µg/mL (≈ 12.3 to 24.6 mM)
